According to ChEMBL document CHEMBL1268857, “Dolabellane Diterpenoids from the South Atlantic Gorgonian Convexella magelhaenica” (J Nat Prod, 2010):

Legend:
[1] = Cytotoxicity against mouse LM3 cells; assay type: functional, cell-based
PANC-1 = assay: Cytotoxicity against human PANC1 cells; assay type: functional, cell-based

C=C(C)[C@@H]1CC[C@]2(C)C/C=C(\C)CC/C=C(\C)C(=O)C[C@@H]12
IC50 [1]: 2.5 µM | IC50 (PANC-1): 39.8 µM

C=C(C)[C@@H]1[C@@H](OC(C)=O)C[C@]2(C)[C@H](OC(C)=O)/C=C(\C)CC/C=C(\C)C(=O)C[C@@H]12
IC50 [1]: 17.8 µM | IC50 (PANC-1): 398 µM
